{"source": "paper PMC11005233", "about": "“Targeting FTO induces colorectal cancer ferroptotic cell death by decreasing SLC7A11/GPX4 expression” (Journal of Experimental & Clinical Cancer Research : CR, 2024)", "biological_target": "fat mass and obesity-associated protein (FTO) (Homo sapiens, UniProt Q9C0B1)", "sequence (Q9C0B1 whole entry)": "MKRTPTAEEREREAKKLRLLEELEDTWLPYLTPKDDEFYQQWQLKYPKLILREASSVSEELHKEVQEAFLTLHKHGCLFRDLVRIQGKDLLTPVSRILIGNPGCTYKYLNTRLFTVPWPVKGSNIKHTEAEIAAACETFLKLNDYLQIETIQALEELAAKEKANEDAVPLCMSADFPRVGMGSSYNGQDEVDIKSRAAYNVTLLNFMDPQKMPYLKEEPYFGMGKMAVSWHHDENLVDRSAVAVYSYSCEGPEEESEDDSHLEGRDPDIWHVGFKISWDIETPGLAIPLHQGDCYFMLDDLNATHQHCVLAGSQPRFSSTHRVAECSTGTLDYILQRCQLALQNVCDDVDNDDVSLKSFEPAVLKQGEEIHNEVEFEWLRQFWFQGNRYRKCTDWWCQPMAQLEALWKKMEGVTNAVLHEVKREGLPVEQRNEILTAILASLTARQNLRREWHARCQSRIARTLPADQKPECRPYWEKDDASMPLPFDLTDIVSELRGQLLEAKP", "test": "SPR (Biacore T200); also thermal shift, CETSA, cell-free m6A demethylase assay", "assay_type": "binding", "data": [{"smiles": "C/C(=C\\C(=O)OCCCCCCCCC(=O)O)C[C@@H]1OC[C@H](C[C@@H]2O[C@H]2[C@@H](C)[C@H](C)O)[C@@H](O)[C@H]1O", "note": "[Mupirocin]", "values": [{"measurement": "Kd", "result": 3.63, "unit": "µM"}]}]}
